Patent US9593305B2, “Differentiation of pluripotent stem cells” (Janssen Biotech, Inc., priority 2008, dated 2017)

Test system: H1 human embryonic stem cells
Assay: Single-cell monolayer assay with EGF/FGF4, serum free, no activin A (Example 10, Table 10)
Type: cell-based
Description: Briefly, clusters of H1 human embryonic stem cells were grown on reduced growth factor […]™ (Invitrogen; Cat #356231)-coated tissue culture plastic. Cultures were treated with Accutase (Sigma; Cat #A6964), using equivalent volumes of […] surface area for 5 minutes at 37° C., then gently resuspended, pelleted by centrifugation, and resuspended in MEF conditioned medium for counting. For assay seeding, cells were plated at 50,000 cells/cm^2 on reduced growth factor […]™-coated 96-well black plates (Packard ViewPlates; Cat #6005182) using volumes of 100 μl/well. Cells were allowed to attach and recover log phase growth over a 3 to 5 day period, feeding daily with MEF conditioned medium supplemented with 8 ng/ml bFGF (R&D Systems; Cat #233-FB). Plates were maintained at 37° C., 5% CO2 in a humidified box throughout the duration of assay.
Stocks of EGF and FGF4 were prepared in a 96-well polypropylene plate (Corning, Inc.; Cat #3960). Compound 22 was available as a 5 mM stock solubilized in 100% DMSO (Sigma; Cat #D2650) and stored at −80° C. Assays were initiated by aspirating culture medium from each well followed by three washes in PBS to remove residual growth factors and serum. […]
On the second day of assay, wells were again aspirated and fed with 80 μl per well were added back containing RPMI 1640 base medium supplemented with 2.5% fatty acid free BSA, 10 ng/ml bFGF, and 3.125 μM Compound 22 plus 20 μl 5× stock of growth factors to yield a final concentration of 2% fatty acid free BSA, 8 ng/ml bFGF and 2.5 μM Compound 22 in assay. Positive control wells contained the same base medium supplemented with 2% fatty acid free BSA, 8 ng/ml bFGF and 100 ng/ml recombinant human activin A. Negative control samples contained the same base medium supplemented with 2% fatty acid free BSA and 8 ng/ml bFGF but omitted treatment with activin A.
At the conclusion of four-days of culture, assay plates were washed twice with PBS, fixed with 4% paraformaldehyde (Alexis Biochemical; Cat #ALX-350-011) at room temperature for 20 minutes, then washed three times with PBS and permeabilized with 0.5% Triton X-100 (Sigma; Cat #T8760-2) for 20 minutes at room temperature. Cells were washed again three times with PBS and blocked with 4% chicken serum (Invitrogen; Cat #16110082) in PBS for 30 minutes at room temperature. Primary antibody (goat anti-human SOX17; R&D Systems; cat #AF1924) was diluted 1:100 in 4% chicken serum and added to each well for one hour at room temperature. Alexa Fluor 488 conjugated secondary antibody (chicken anti-goat IgG; Molecular Probes; Cat #AZ1467) was diluted 1:200 in PBS and added to each sample well after washing three times with PBS. To counterstain nuclei, 4 μg/ml Hoechst 33342 (Invitrogen; Cat #H3570) was added for ten minutes at room temperature. Plates were washed once with PBS and left in 100 μl/well PBS for imaging.
Imaging was performed using an IN Cell Analyzer 1000 (GE Healthcare) utilizing the 51008bs dichroic for cells stained with Hoechst 33342 and Alexa Fluor 488. Exposure times were optimized from positive control wells and from untreated negative control wells stained with secondary antibody alone. Images from 15 fields per well were acquired to compensate for any cell loss during the bioassay and subsequent staining procedures. Measurements for total cell number and total SOX17 intensity were obtained from each well using IN Cell Developer Toolbox 1.7 (GE Healthcare) software. Segmentation for the nuclei was determined based on gray-scale levels (baseline range 100-300) and nuclear size. Averages and standard deviations were calculated for each replicate data set. Total SOX17 protein expression was reported as total intensity or integrated intensity, defined as total fluorescence of the cell multiplied by the area of the cell. Background was eliminated based on acceptance criteria of gray-scale ranges between 200 to 3500. […]

[1] = No AA (with Wnt3a), FGF none, EGF none
[2] = No AA (with Wnt3a), FGF none, EGF(25 ng/ml)
[3] = No AA (with Wnt3a), FGF none, EGF(50 ng/ml)
[4] = No AA (with Wnt3a), FGF none, EGF(100 ng/ml)
[5] = No AA (with Wnt3a), FGF(25 ng/ml), EGF none
[6] = No AA (with Wnt3a), FGF(25 ng/ml), EGF(25 ng/ml)
[7] = No AA (with Wnt3a), FGF(25 ng/ml), EGF(50 ng/ml)
[8] = No AA (with Wnt3a), FGF(25 ng/ml), EGF(100 ng/ml)
[9] = No AA (with Wnt3a), FGF(50 ng/ml), EGF none
[10] = No AA (with Wnt3a), FGF(50 ng/ml), EGF(25 ng/ml)
[11] = No AA (with Wnt3a), FGF(50 ng/ml), EGF(50 ng/ml)
[12] = No AA (with Wnt3a), FGF(50 ng/ml), EGF(100 ng/ml)
[13] = No AA (with Wnt3a), FGF(100 ng/ml), EGF none
[14] = No AA (with Wnt3a), FGF(100 ng/ml), EGF(25 ng/ml)
[15] = No AA (with Wnt3a), FGF(100 ng/ml), EGF(50 ng/ml)
[16] = No AA (with Wnt3a), FGF(100 ng/ml), EGF(100 ng/ml)
[17] = No AA (without Wnt3a), FGF(50 ng/ml), EGF(50 ng/ml)
[18] = No AA (without Wnt3a), FGF(50 ng/ml), EGF(100 ng/ml)
[19] = No AA (without Wnt3a), FGF(100 ng/ml), EGF(50 ng/ml)
[20] = No AA (without Wnt3a), FGF(100 ng/ml), EGF(100 ng/ml)
[21] = Activin A (with Wnt3a), positive control

## O=C1CCN2CCN(CC2)Cc2cc(Cl)cc(c2)Nc2ncnc(n2)-c2cncc(c2)CCCN1 [Compound 34, 5-Chloro-1,8,10,12,16,22,26,32-octaazapentacyclo[24.2.2.1˜3.7˜0.1˜9,13˜0.1˜14.18˜]tritriaconta-3(33), 4,6,9(32), 10,12,14(31), 15,17-nonaen-23-one]
[1]
  Cell Number, % of positive control: 92.38%
  Cell Number, Average Total Cell Number: 11711
  Sox17 Expression, % of positive control: 60.68%
  Sox17 Expression, Average Total Intensity: 1.65E+08
[2]
  Cell Number, % of positive control: 126.63%
  Cell Number, Average Total Cell Number: 16052
  Sox17 Expression, % of positive control: 78.82%
  Sox17 Expression, Average Total Intensity: 2.14E+08
[3]
  Cell Number, % of positive control: 107.23%
  Cell Number, Average Total Cell Number: 13593
  Sox17 Expression, % of positive control: 71.52%
  Sox17 Expression, Average Total Intensity: 1.94E+08
[4]
  Cell Number, % of positive control: 103.90%
  Cell Number, Average Total Cell Number: 13170
  Sox17 Expression, % of positive control: 71.04%
  Sox17 Expression, Average Total Intensity: 1.93E+08
[5]
  Cell Number, % of positive control: 145.41%
  Cell Number, Average Total Cell Number: 18433
  Sox17 Expression, % of positive control: 91.72%
  Sox17 Expression, Average Total Intensity: 2.49E+08
[6]
  Cell Number, % of positive control: 148.63%
  Cell Number, Average Total Cell Number: 18841
  Sox17 Expression, % of positive control: 95.72%
  Sox17 Expression, Average Total Intensity: 2.60E+08
[7]
  Cell Number, % of positive control: 128.05%
  Cell Number, Average Total Cell Number: 16232
  Sox17 Expression, % of positive control: 84.79%
  Sox17 Expression, Average Total Intensity: 2.30E+08
[8]
  Cell Number, % of positive control: 73.44%
  Cell Number, Average Total Cell Number: 9309
  Sox17 Expression, % of positive control: 51.00%
  Sox17 Expression, Average Total Intensity: 1.39E+08
[9]
  Cell Number, % of positive control: 100.64%
  Cell Number, Average Total Cell Number: 12757
  Sox17 Expression, % of positive control: 61.10%
  Sox17 Expression, Average Total Intensity: 1.66E+08
[10]
  Cell Number, % of positive control: 139.79%
  Cell Number, Average Total Cell Number: 17720
  Sox17 Expression, % of positive control: 85.01%
  Sox17 Expression, Average Total Intensity: 2.31E+08
[11]
  Cell Number, % of positive control: 128.83%
  Cell Number, Average Total Cell Number: 16331
  Sox17 Expression, % of positive control: 83.11%
  Sox17 Expression, Average Total Intensity: 2.26E+08
[12]
  Cell Number, % of positive control: 128.87%
  Cell Number, Average Total Cell Number: 16336
  Sox17 Expression, % of positive control: 85.24%
  Sox17 Expression, Average Total Intensity: 2.32E+08
[13]
  Cell Number, % of positive control: 156.61%
  Cell Number, Average Total Cell Number: 19853
  Sox17 Expression, % of positive control: 95.45%
  Sox17 Expression, Average Total Intensity: 2.59E+08
[14]
  Cell Number, % of positive control: 156.83%
  Cell Number, Average Total Cell Number: 19880
  Sox17 Expression, % of positive control: 95.47%
  Sox17 Expression, Average Total Intensity: 2.59E+08
[15]
  Cell Number, % of positive control: 143.30%
  Cell Number, Average Total Cell Number: 18166
  Sox17 Expression, % of positive control: 86.30%
  Sox17 Expression, Average Total Intensity: 2.35E+08
[16]
  Cell Number, % of positive control: 88.68%
  Cell Number, Average Total Cell Number: 11241
  Sox17 Expression, % of positive control: 57.10%
  Sox17 Expression, Average Total Intensity: 1.55E+08
[17]
  Cell Number, % of positive control: 105.06%
  Cell Number, Average Total Cell Number: 13317
  Sox17 Expression, % of positive control: 74.08%
  Sox17 Expression, Average Total Intensity: 2.01E+08
[18]
  Cell Number, % of positive control: 111.93%
  Cell Number, Average Total Cell Number: 14189
  Sox17 Expression, % of positive control: 73.90%
  Sox17 Expression, Average Total Intensity: 2.01E+08
[19]
  Cell Number, % of positive control: 99.52%
  Cell Number, Average Total Cell Number: 12616
  Sox17 Expression, % of positive control: 66.21%
  Sox17 Expression, Average Total Intensity: 1.80E+08
[20]
  Cell Number, % of positive control: 65.23%
  Cell Number, Average Total Cell Number: 8269
  Sox17 Expression, % of positive control: 41.73%
Compound added to EGF and/or FGF4, single cells, no activin A
  SOX17 expression: significant enhancement of SOX17 expression

## Activin A: recombinant human activin A (PeproTech), TGF-beta family member
[21]
  Cell Number, % of positive control: 100.00%
  Cell Number, Average Total Cell Number: 12676
  Sox17 Expression, % of positive control: 100.00%
  Sox17 Expression, Average Total Intensity: 2.72E+08
